Results as given in patent US20260262644A1, “Antifungal compositions comprising natamycin” (Patent Nata B.V., priority 2023, published 2026).
Values belong to the compound of their own block, whether it stands above or below them.

Experiments:
Pythium ultimum [1] = assay: Mycelium growth on PDA petri dishes containing natamycin and/or solvent; synergy by Colby equation; assay type: cell-based
Text: The Colby equation (Colby, 1967. Weeds 15: 20-22) calculates the expected antifungal activity (E in %) of a combination comprising more than one active ingredients:
wherein X and Y are the observed antifungal activities (in %) of the individual active ingredients x and y, respectively. If the observed antifungal activity (O in %) of the combination exceeds the expected antifungal activity (E in %) of the combination and the synergy factor O/E is thus >1.0, the combined application of the active ingredients and solvent leads to a synergistic antifungal effect.
Agar medium was prepared by mixing in a 100 ml Duran bottle 3.9 g of potato dextrose agar (PDA; Carl-Roth GmbH+Co. KG, Karlsruhe, Germany) with 100 ml deionized water and autoclaving the Duran bottle at 120° C. for 15 minutes. After autoclaving, the solution was cooled by putting it in a 50° C. oven for about two hours. Afterward the semi-liquid PDA solution was carefully mixed with natamycin and/or solvent dosages as specified in Table 2 (left column). The medium in the Duran bottle was divided over 5 petri dishes (90×15 mm), 20 ml per petri dish by using 25 ml serological pipets (ROTILABO®; Carl-Roth). Each natamycin and/or solvent treatment was performed in five fold.
Hereafter, a circular agar mycelium plug (circular segment with a height on 5 mm of agar, fully grown with fresh Pythium ultimum mycelium, which was cut out of a petri dish with the broad side of a yellow pipette tip (Greiner Bio-One, 200 μl tips) with a diameter of 5 mm, was placed in the center of the petri dish. Hereafter the petri dishes were placed in the incubator at 22° C. Measurement of the fungal growth was done using caliper.
The solvent levels and the period after which the assessments were made are presented as specified for the different solvents are presented in Table 2 below. Synergistic calculation was done using the Colby equation. Experiment was performed in 5-fold.

Botrytis cinerea = assay: as above; assay type: cell-based; conditions: 1 day after plug
[2] = Solubility of natamycin in solvents (HPLC); assay type: physicochemical
Method: The solubility of natamycin was measured in water and in the water-miscible solvent DMSO. For this, 240.6 mg and 94.3 mg of natamycin at a purity of 95% (DSM) were diluted in 50 ml of water and DMSO, respectively. The mixtures were sonicated for 30 minutes and analysed by HPLC. The HPLC system was an Agilent 1100 system. The column used was a ACE C18 RP column, 250×4.6 mm with pore size 5 μm. The mobile phase consisted of 1 g ammonium chloride and 3 g ammonium acetate dissolved in 760 mL water, and mixed with 240 mL acetonitrile and 5 mL tetrahydrofuran (THF). The speed of the flow was 3.0 ml/min and the column temperature was 25° C. The injection volume was 20 μL. Natamycin was detected with a spectrophotometer at a wavelength of 303 nm. All samples were centrifugated and filtered through 0.45 μm HPLC filters before analysis. The amount of dissolved natamycin measured in water and DMSO were 32 mg/kg and 2571 mg/kg, respectively (see Table 12).
For the water-miscible solvent Purasolv® EL, and the water-immiscible solvents BL and EHL, natamycin was added until it no longer dissolved. The mixtures were then filtered and analysed by HPLC. The amount of dissolved natamycin were 832, 211, and 271 mg/kg for EL, BL, and EHL, respectively (Table 12).

Pythium ultimum [3] = assay: Emergence of coated spinach seeds in artificially infected soil; assay type: in vivo; conditions: natamycin 0.25, BL 0, thymol 0 mg/g seeds, 6 days after sowing
Method: Spinach seeds were placed in soil that was artificially infected (see below for method).
Soil infection was obtained via incubation of soil with infected, killed rye seeds. […] The dead rye seeds were infected with Pythium ultimum PDA plugs (circular segments of PDA, covered with freshly fully grown Pythium ultimum mycelium, which were cut out of a petri dish with the broad side of a yellow pipette tip (Greiner Bio-One, 200 μl tips) with a diameter of 5 mm). Three P. ultimum agar plugs were placed in the 500 ml jar containing the 50 g autoclaved (dead) rye seeds, which was further incubated at 22° C. for one week (16 h day light, 8 hours dark). To prepare the infected soil, potting soil (Tuinaarde, ophoog grond, purchased from Welkoop) were placed in round transparent plastic containers (9 cm in diameter, 4.5 cm high, volume 250 ml). Ten infected rye seeds, that acted as a carrier for P. ultimum, were placed in each round plastic container. To treat the spinach seeds, 77.8 μl of treatment mix (see below) was added to 1 g of seeds in a plastic container. The seeds were shaken and let to dry. Once dried, 20 treated spinach seeds were added to the inoculated soil. The rye seeds and spinach seeds were mixed into the soil, so that both seed types were homogenously distributed within the soil as well as covered by the soil. […] Emergence of the seedlings was assessed. […]

Pythium ultimum [4] = assay: Emergence of coated radish seeds in artificially infected soil; assay type: in vivo; conditions: natamycin 0.05, thymol 0 mg/g seeds, 2 days after sowing
Method: Soil infection was obtained via incubation of soil with infected, killed rye seeds. For this, 50 g of rye seeds and 50 ml water were put into a 500 ml glass jar, which was autoclaved twice (121° C., 15 min, 15 psi). The dead rye seeds were infected with Pythium ultimum PDA plugs (circular segments of PDA, covered with freshly fully grown Pythium ultimum mycelium, which were cut out of a petri dish with the broad side of a yellow pipette tip (Greiner Bio-One, 200 μl tips) with a diameter of 5 mm). Three P. ultimum agar plugs were placed in the 500 ml jar containing the 50 g autoclaved (dead) rye seeds, which was further incubated at 22° C. for one week (16 h day light, 8 hours dark). To prepare the infected soil, potting soil (Tuinaarde, ophoog grond, purchased from Welkoop) were placed in round transparent plastic containers (9 cm in diameter, 4.5 cm high, volume 250 ml). Ten infected rye seeds, that acted as a carrier for P. ultimum, were placed in each round plastic container. […] The seeds were shaken and let to dry. […] The containers were closed with transparent lids and placed into a growth cabinet with the following growth conditions: 16 h day light, 22° C. constant temperature, 70% humidity. Emergence of the seedlings was assessed. For each treatment 3 pots were used, resulting in 3 replicates. […]

[5] = natamycin-solvent 0-12.5 ppm, 1 day after plug
[6] = natamycin-solvent 0-25 ppm, 1 day after plug
[7] = natamycin-solvent 0-250 ppm, 1 day after plug
[8] = natamycin-solvent 0-125 ppm, 2 days after plug, Tables 4-5
[9] = natamycin-solvent 0-250 ppm, 2 days after plug, Tables 4-5
[10] = natamycin-solvent 0-500 ppm, 2 days after plug, Tables 4-5
[11] = natamycin-solvent 0-12.5 ppm, 2 days after plug
[12] = natamycin-solvent 0-25 ppm, 2 days after plug
[13] = natamycin-solvent 0-250 ppm, 2 days after plug

Compound: CC(O)C(=O)N(C)C (stereo not shown) [Agnique ® AMD 3L, dimethyllactamide]
Avg infected area (Pythium ultimum [1]; [5]): 1220.5 mm^2
Observed % (Pythium ultimum [1]; [5]): 10.31%
Avg infected area (Pythium ultimum [1]; [6]): 1116.3 mm^2
Observed % (Pythium ultimum [1]; [6]): 17.97%
Avg infected area (Pythium ultimum [1]; [7]): 1278.7 mm^2
Observed % (Pythium ultimum [1]; [7]): 6.04%

Compound: CCO [EtOH, Ethanol]
Avg infected area (Pythium ultimum [1]; [8]): 5488.804 mm2
Avg infected area (Pythium ultimum [1]; [9]): 5286.064 mm2
Avg infected area (Pythium ultimum [1]; [10]): 4366.453 mm2
Avg infected area (Botrytis cinerea; natamycin-solvent 0-0.5 ppm): 1602.867 mm2
Observed % (Botrytis cinerea; natamycin-solvent 0-0.5 ppm): 18.70%

Compound: CC(O)C(=O)N(C)C (stereo not shown) [DMAC, dimethyllactamide]
Avg infected area (Pythium ultimum [1]; [5]): 1251.6 mm^2
Observed % (Pythium ultimum [1]; [5]): 6.73%
Avg infected area (Pythium ultimum [1]; [7]): 1316.1 mm^2
Observed % (Pythium ultimum [1]; [7]): 1.93%

Natamycin concentration (amount of dissolved natamycin) ([2]; in 2-ethylhexyl L-lactate (Purasolv EHL)): 271 mg/kg
Natamycin concentration (amount of dissolved natamycin) ([2]; in DMSO): 2571 mg/kg
Natamycin concentration (amount of dissolved natamycin) ([2]; in ethyl L-lactate (Purasolv EL)): 832 mg/kg
Natamycin concentration (amount of dissolved natamycin) ([2]; in n-butyl L-lactate (Purasolv BL)): 211 mg/kg
Natamycin concentration (amount of dissolved natamycin) ([2]; in water): 32 mg/kg
Compound: C[C@@H]1C/C=C/C=C/C=C/C=C/[C@H](O[C@@H]2O[C@H](C)[C@@H](O)[C@H](N)[C@@H]2O)C[C@@H]2O[C@](O)(C[C@@H](O)C[C@H]3O[C@@H]3/C=C/C(=O)O1)C[C@H](O)[C@H]2C(=O)O [Natamycin]
Avg infected area (Pythium ultimum [1]; natamycin-solvent 25-0 ppm, 2 days after plug, Tables 4-5): 4397.811 mm2
Avg infected area (Pythium ultimum [1]; natamycin-solvent 50-0 ppm, 1 day after plug, Tables 6-7): 563.7967 mm2
Avg infected area (Pythium ultimum [1]; natamycin-solvent 50-0 ppm, 2 days after plug, Tables 4-5): 4891.484 mm2
Avg infected area (Pythium ultimum [1]; natamycin-solvent 100-0 ppm, 2 days after plug, Tables 4-5): 4435.301 mm2
Avg infected area (Pythium ultimum [1]; natamycin-solvent 200-0 ppm, 2 days after plug, Tables 4-5): 5059.918 mm2
Avg germination (Pythium ultimum [3]): 18.3
Observed % (Pythium ultimum [3]): 37.50%
Avg germination (Pythium ultimum [4]): 41.7
Observed % (Pythium ultimum [4]): 13.64%
Avg infected area (Botrytis cinerea; natamycin-solvent 0.5-0 ppm): 1183.171 mm2
Observed % (Botrytis cinerea; natamycin-solvent 0.5-0 ppm): 39.99%

Compound: CCOC(=O)[C@H](C)O [EL, ethyl L-lactate]
Avg infected area (Pythium ultimum [1]; natamycin-solvent 0-12.5 ppm, 1 day after plug, Tables 6-7): 625.9774 mm2
Avg infected area (Pythium ultimum [1]; natamycin-solvent 0-25 ppm, 1 day after plug, Tables 6-7): 574.2358 mm2
Avg infected area (Pythium ultimum [1]; natamycin-solvent 0-50 ppm, 1 day after plug, Tables 6-7): 619.378 mm2
Avg infected area (Botrytis cinerea; natamycin-solvent 0-0.5 ppm): 1390.376 mm2
Observed % (Botrytis cinerea; natamycin-solvent 0-0.5 ppm): 29.48%

Compound: C=CCCCCCCCC(=O)N(C)C [Hallcomid ® 1025]
Avg infected area (Pythium ultimum [1]; [11]): 3666.2 mm^2
Observed % (Pythium ultimum [1]; [11]): 30.89%
Avg infected area (Pythium ultimum [1]; [12]): 2118.6 mm^2
Observed % (Pythium ultimum [1]; [12]): 60.06%
Avg infected area (Pythium ultimum [1]; [13]): 0 mm^2
Observed % (Pythium ultimum [1]; [13]): 100.00%

Compound: C[S+](C)[O-] [DMSO, Dimethyl Sulfoxide]
Avg infected area (Pythium ultimum [1]; [8]): 5247.969 mm2
Avg infected area (Pythium ultimum [1]; [9]): 5238.583 mm2
Avg infected area (Pythium ultimum [1]; [10]): 5129.162 mm2
Avg infected area (Pythium ultimum [1]; natamycin-solvent 0-1000 ppm, 2 days after plug, Tables 4-5): 4475.89 mm2

Compound: CCCCC(CC)COC(=O)[C@H](C)O (stereo partly drawn) [EHL, 2-ethylhexyl L-lactate]
Avg infected area (Pythium ultimum [1]; natamycin-solvent 0-125 ppm, 1 day after plug, Tables 6-7): 290.1899 mm2
Avg infected area (Pythium ultimum [1]; natamycin-solvent 0-250 ppm, 1 day after plug, Tables 6-7): 34.78 mm2
Avg infected area (Botrytis cinerea; natamycin-solvent 0-0.5 ppm): 1740.142 mm2
Observed % (Botrytis cinerea; natamycin-solvent 0-0.5 ppm): 11.74%

Compound: Xylene
Avg infected area (Pythium ultimum [1]; [12]): 5371.2 mm^2
Observed % (Pythium ultimum [1]; [12]): 1.35%
